Tests used:
CK1δ = CK1δ (Homo sapiens (Human), UniProt P48730); test: CK1δ kinase assay (Caliper LABCHIP electrophoretic separation of fluoresceinated peptide substrate and product); type: biochemical; details: 200 pM enzyme, 50 μM ATP, 22 hours at room temperature
Method in brief: (§1)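 Each reaction was incubated 22 hours at room temperature and terminated with EDTA. Read-out was microfluidic electrophoretic separation of fluoresceinated substrate and phospho-product.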

CK1ε = CK1ε (Homo sapiens (Human), UniProt P49674); test: CK1ε kinase assay (Caliper LABCHIP electrophoretic separation of fluoresceinated peptide substrate and product); type: biochemical; details: 200 pM enzyme, 50 μM ATP, 22 hours at room temperature
Method in brief: as §1

Sequence of CK1δ (P48730 whole entry): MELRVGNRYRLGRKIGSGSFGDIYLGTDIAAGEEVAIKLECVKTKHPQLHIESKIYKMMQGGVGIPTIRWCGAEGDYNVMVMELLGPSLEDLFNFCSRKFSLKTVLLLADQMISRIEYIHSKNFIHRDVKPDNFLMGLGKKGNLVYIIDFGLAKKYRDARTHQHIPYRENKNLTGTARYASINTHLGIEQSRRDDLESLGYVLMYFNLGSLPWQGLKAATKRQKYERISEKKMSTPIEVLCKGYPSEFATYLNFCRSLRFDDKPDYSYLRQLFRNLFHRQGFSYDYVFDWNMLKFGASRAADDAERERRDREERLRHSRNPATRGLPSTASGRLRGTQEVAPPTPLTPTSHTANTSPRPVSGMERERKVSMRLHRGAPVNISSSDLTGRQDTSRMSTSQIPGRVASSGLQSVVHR
Sequence of CK1ε (P49674 whole entry): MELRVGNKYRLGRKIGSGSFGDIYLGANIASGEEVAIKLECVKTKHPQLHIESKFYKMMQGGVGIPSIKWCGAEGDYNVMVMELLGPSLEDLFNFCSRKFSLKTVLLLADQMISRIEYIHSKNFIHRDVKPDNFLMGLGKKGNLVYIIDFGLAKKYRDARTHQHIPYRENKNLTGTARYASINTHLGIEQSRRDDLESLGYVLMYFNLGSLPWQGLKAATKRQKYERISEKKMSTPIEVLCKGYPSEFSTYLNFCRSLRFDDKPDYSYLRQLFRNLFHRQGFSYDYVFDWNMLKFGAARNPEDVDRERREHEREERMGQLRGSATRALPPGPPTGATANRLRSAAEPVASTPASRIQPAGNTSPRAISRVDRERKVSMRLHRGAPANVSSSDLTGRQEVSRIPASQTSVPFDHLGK

SMILES | IC50 (CK1δ) [nM] | IC50 (CK1ε) [nM]
Cc1nc(-c2ccc(F)cc2)c(-c2ccc3nc(NC(=O)c4ncc[nH]4)cn3n2)n1C [Compound 373, N-(6-(4-(4-fluorophenyl)-1,2-dimethyl-1H-imidazol-5-yl)imidazo[1,2-b]pyridazin-2-yl)-1H-imidazole-2-carboxamide] | 18.5 | 176
Cc1nc(-c2ccc(F)cc2)c(-c2ccc3nc(NC(=O)c4ccc(C#N)nc4)cn3n2)n1C [Compound 374, 6-cyano-N-(6-(4-(4-fluoro-phenyl)-1,2-dimethyl-1H-imidazol-5-yl)imidazo[1,2-b]pyridazin-2-yl)nicotinamide] | 0.399 | 3.95
Cc1nc(-c2ccc(F)cc2)c(-c2ccc3nc(NC(=O)c4ccon4)cn3n2)n1C [Compound 375, N-(6-(4-(4-fluorophenyl)-1,2-dimethyl-1H-imidazol-5-yl)imidazo[1,2-b]pyridazin-2-yl)-3-isoxazolecarboxamide] | 1.91 | 16.3
Cc1nc(-c2ccc(F)cc2)c(-c2ccc3nc(NC(=O)[C@@H]4CCC(=O)N4)cn3n2)n1C [Compound 376, N-(6-(4-(4-fluorophenyl)-1,2-dimethyl-1H-imidazol-5-yl)imidazo[1,2-b]pyridazin-2-yl)-5-oxo-L-prolinamide] | 8.88 | 78.1
Cc1n[nH]cc1C(=O)Nc1cn2nc(-c3c(-c4ccc(F)cc4)nc(C)n3C)ccc2n1 [Compound 377, N-(6-(4-(4-fluorophenyl)-1,2-dimethyl-1H-imidazol-5-yl)imidazo[1,2-b]pyridazin-2-yl)-3-methyl-1H-pyrazole-4-carboxamide] | 0.656 | 4.04
Cc1nc(-c2ccc(F)cc2)c(-c2ccc3nc(NC(=O)c4cnoc4)cn3n2)n1C [Compound 378, N-(6-(4-(4-fluorophenyl)-1,2-dimethyl-1H-imidazol-5-yl)imidazo[1,2-b]pyridazin-2-yl)-4-isoxazolecarboxamide] | 6.19 | 60
Cc1cc(C(=O)Nc2cn3nc(-c4c(-c5ccc(F)cc5)nc(C)n4C)ccc3n2)on1 [Compound 379, N-(6-(4-(4-fluorophenyl)-1,2-dimethyl-1H-imidazol-5-yl)imidazo[1,2-b]pyridazin-2-yl)-3-methyl-5-isoxazole-carboxamide] | 0.569 | 4.94
Cc1nc(-c2ccc(F)cc2)c(-c2ccc3nc(NC(=O)c4cnc[nH]4)cn3n2)n1C [Compound 380, N-(6-(4-(4-fluorophenyl)-1,2-dimethyl-1H-imidazol-5-yl)imidazo[1,2-b]pyridazin-2-yl)-1H-imidazole-5-carboxamide] | 5.23 | 36.1
Cc1c(C(=O)Nc2cn3nc(-c4c(-c5ccc(F)cc5)nc(C)n4C)ccc3n2)cnn1C [Compound 381, N-(6-(4-(4-fluorophenyl)-1,2-dimethyl-1H-imidazol-5-yl)imidazo[1,2-b]pyridazin-2-yl)-1,5-dimethyl-1H-pyrazole-4-carboxamide] | 0.754 | 3.74
Cc1cc(C(=O)Nc2cn3nc(-c4c(-c5ccc(F)cc5)nc(C)n4C)ccc3n2)on1 [Compound 382, N-(6-(4-(4-fluorophenyl)-1,2-dimethyl-1H-imidazol-5-yl)imidazo[1,2-b]pyridazin-2-yl)-3-methyl-5-isoxazole-carboxamide] | 21.9 | 103
Cc1nc(-c2ccc(F)cc2)c(-c2ccc3nc(NC(=O)c4ncccn4)cn3n2)n1C [Compound 383, N-(6-(4-(4-fluorophenyl)-1,2-dimethyl-1H-imidazol-5-yl)imidazo[1,2-b]pyridazin-2-yl)pyrimidine-2-carboxamide] | 6.34 | 17.3
Cc1nc(-c2ccc(F)cc2)c(-c2ccc3nc(NC(=O)c4ccncn4)cn3n2)n1C [Compound 384, N-(6-(4-(4-fluorophenyl)-1,2-dimethyl-1H-imidazol-5-yl)imidazo[1,2-b]pyridazin-2-yl)pyrimidine-4-carboxamide] | 8.51 | 29.1
Cc1nc(-c2ccc(F)cc2)c(-c2ccc3nc(NC(=O)c4cccnn4)cn3n2)n1C [Compound 386, N-(6-(4-(4-fluorophenyl)-1,2-dimethyl-1H-imidazol-5-yl)imidazo[1,2-b]pyridazin-2-yl)pyridazine-3-carboxamide] | 10.5 | 55.1
Cc1nc(-c2ccc(F)cc2)c(-c2ccc3nc(NC(=O)c4cnccn4)cn3n2)n1C [Compound 388, N-(6-(4-(4-fluorophenyl)-1,2-dimethyl-1H-imidazol-5-yl)imidazo[1,2-b]pyridazin-2-yl)pyrazine-2-carboxamide] | 7.12 | 19.4
Cc1nc(-c2ccc(F)cc2)c(-c2ccc3nc(NC(=O)c4cc(-c5ccc(F)cc5)ncn4)cn3n2)n1C [Compound 389] | 35.2 | 270
Cc1nc(-c2ccc(F)cc2)c(-c2ccc3nc(NC(=O)c4cnc(-c5ccncc5)s4)cn3n2)n1C [Compound 390, N-(6-(4-(4-fluorophenyl)-1,2-dimethyl-1H-imidazol-5-yl)imidazo[1,2-b]pyridazin-2-yl)-2-(pyridin-4-yl)thiazole-5-carboxamide] | 7.2 | 32.6
Cc1nc(-c2ccc(F)cc2)c(-c2ccc3nc(NC(=O)c4ccnnc4)cn3n2)n1C [Compound 391, N-(6-(4-(4-fluorophenyl)-1,2-dimethyl-1H-imidazol-5-yl)imidazo[1,2-b]pyridazin-2-yl)pyridazine-4-carboxamide] | 4.45 | 10.5

The next lines start with the values.

IC50 (CK1δ) [nM] | IC50 (CK1ε) [nM] | SMILES
16.7 | 54.5 | Cc1nc(-c2ccc(F)cc2)c(-c2ccc3nc(NC(=O)c4ccccc4CN(C)C)cn3n2)n1C [Compound 392, 2-((dimthylamino)methyl)-N-(6-(4-(4-fluorophenyl)-1,2-dimethyl-1H-imidazol-5-yl)imidazo[1,2-b]pyridazin-2-yl)benzamide]
6.81 | 15.3 | Cc1nc(-c2ccc(F)cc2)c(-c2ccc3nc(NC(=O)c4cccc(CN5CCCC5)c4)cn3n2)n1C [Compound 394, N-(6-(4-(4-fluorophenyl)-1,2-dimethyl-1H-imidazol-5-yl)imidazo[1,2-b]pyridazin-2-yl)-3-(pyrrolidin-1-ylmethyl) benzamide]
5.46 | 10.6 | Cc1nc(-c2ccc(F)cc2)c(-c2ccc3nc(NC(=O)c4ccc(CN5CCCC5)cc4)cn3n2)n1C [Compound 395, N-(6-(4-(4-fluorophenyl)-1,2-dimethyl-1H-imidazol-5-yl)imidazo[1,2-b]pyridazin-2-yl)-4-(pyrrolidin-1-ylmethyl) benzamide]
3.88 | 4.41 | Cc1nc(-c2ccc(F)cc2)c(-c2ccc3nc(NC(=O)c4cncs4)cn3n2)n1C [Compound 396, N-(6-(4-(4-fluorophenyl)-1,2-dimethyl-1H-imidazol-5-yl)imidazo[1,2-b]pyridazin-2-yl)thiazole-5-carboxamide]
2.74 | 6.65 | Cc1nc(-c2ccc(F)cc2)c(-c2ccc3nc(NC(=O)c4ccncc4F)cn3n2)n1C [Compound 397, 3-fluoro-N-(6-(4-(4-fluoro-phenyl)-1,2-dimethyl-1H-imidazol-5-yl)imidazo[1,2-b]pyridazin-2-yl)isonicotin-amide]
0.66 | 2.7 | Cc1nc(-c2ccc(F)cc2)c(-c2ccc3nc(NC(=O)c4ccc(Cl)cc4F)cn3n2)n1C [Compound 398, 4-chloro-2-fluoro-N-(6-(4-(4-fluorophenyl)-1,2-dimethyl-1H-imidazol-5-yl)imidazo[1,2-b]pyridazin-2-yl) benzamide]
2.13 | 5.29 | Cc1nc(-c2ccc(F)cc2)c(-c2ccc3nc(NC(=O)c4ccccc4F)cn3n2)n1C [Compound 399, 2-fluoro-N-(6-(4-(4-fluoro-phenyl)-1,2-dimethyl-1H-imidazol-5-yl)imidazo[1,2-b]pyridazin-2-yl)benzamide]
6.76 | 23.3 | Cc1nc(-c2ccc(F)cc2)c(-c2ccc3nc(NC(=O)c4cc(C(C)(C)C)ncn4)cn3n2)n1C [Compound 400, 6-(tert-butyl)-N-(6-(4-(4-fluorophenyl)-1,2-dimethyl-1H-imidazol-5-yl)imidazo[1,2-b]pyridazin-2-yl) pyrimidine-4-carboxamide]
0.463 | 7.47 | Cc1cc(C)c(-c2cccnc2)cc1C(=O)Nc1cn2nc(-c3c(-c4ccc(F)cc4)nc(C)n3C)ccc2n1 [Compound 402, N-(6-(4-(4-Fluorophenyl)-1,2-dimethyl-1H-imidazol-5-yl)imidazo[1,2-b]pyridazin-2-yl)-2,4-dimethyl-5-(pyridin-3-yl)benzamide]
0.582 | 1.61 | Cc1c(C(=O)Nc2cn3nc(-c4c(-c5ccc(F)cc5)nc(C)n4C)ccc3n2)cccc1-c1cccnc1 [Compound 403, N-(6-(4-(4-Fluorophenyl)-1,2-dimethyl-1H-imidazol-5-yl)imidazo[1,2-b]pyridazin-2-yl)-2-methyl-3-(pyridin-3-yl)benzamide]
1.04 | 4.21 | Cc1nc(-c2ccc(F)cc2)c(-c2ccc3nc(NC(=O)c4sc(-c5cccnc5)nc4C(F)(F)F)cn3n2)n1C [Compound 404, N-(6-(4-(4-Fluorophenyl)-1,2-dimethyl-1H-imidazol-5-yl)imidazo[1,2-b]pyridazin-2-yl)-2-(pyridin-3-yl)-4-(trifluoromethyl)thiazole-5-carboxamide]
1.04 | 4.21 | Cc1nc(-c2ccc(F)cc2)c(-c2ccc3nc(NC(=O)c4sc(-c5ccncc5)nc4C(F)(F)F)cn3n2)n1C [Compound 405, N-(6-(4-(4-Fluorophenyl)-1,2-dimethyl-1H-imidazol-5-yl)imidazo[1,2-b]pyridazin-2-yl)-2-(pyridin-4-yl)-4-(trifluoromethyl)thiazole-5-carboxamide]
0.349 | 2.94 | Cc1nc(-c2ccc(F)cc2)c(-c2ccc3nc(NC(=O)c4cncc(-c5ccc(F)nc5)c4)cn3n2)n1C [Compound 406, 6′-Fluoro-N-(6-(4-(4-fluorophenyl)-1,2-dimethyl-1H-imidazol-5-yl)imidazo[1,2-b]pyridazin-2-yl)-[3,3′-bipyridine]-5-carboxamide]
